# Data: ChEMBL document CHEMBL1909046, “DrugMatrix in vitro pharmacology data”
# Columns and labels:
# [1] = target: Aldo-keto reductase family 1 member B1 (Rattus norvegicus, UniProt P07943); assay type: tissue-based, Lens of camera-type eye;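 note: inhibition of aldose reductase enzyme activity, measured with DL-glyceraldehyde as the substrate; in other assays of this panel Not Active means under 50% inhibition at 10 µM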
# [2] = DRUGMATRIX: Glutamate, Kainate radioligand binding (ligand: [3H] Kainic acid); assay type: cell membranes, Rattus norvegicus, Wistar, Brain, Membrane; conditions: Not Active = under 50% inhibition at 10 µM
# [3] = DRUGMATRIX: Glutamate, AMPA radioligand binding (ligand: [3H] AMPA); assay type: cell membranes, Rattus norvegicus, Wistar, Cerebral cortex, Membrane; conditions: Not Active = under 50% inhibition at 10 µM
# Carbonic anhydrase 2 = Carbonic anhydrase 2 (Homo sapiens, UniProt P00918); assay: DRUGMATRIX: Carbonic Anhydrase II enzyme inhibition (substrate: 4-Nitrophenyl acetate (4-NPA)); assay type: tissue-based, Erythrocyte; conditions: erythrocyte; Not Active = under 50% inhibition at 10 µM
# [4] = target: Delta-type opioid receptor (Homo sapiens, UniProt P41143); assay type: cell membranes, HEK293, Membrane; conditions: hek293; note: in other assays of this panel Not Active means under 50% inhibition at 10 µM
# Substance-P receptor = Substance-P receptor (Homo sapiens, UniProt P25103); assay type: cell membranes, CHO, Membrane; conditions: cho; note: in other assays of this panel Not Active means under 50% inhibition at 10 µM
# Adenosine receptor A3 = target: T1, Adenosine receptor A3 (Homo sapiens, UniProt P0DMS8); assay type: cell membranes, CHO-K1, Membrane;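 note: radioligand binding assay with AB-MECA serving as the labeled ligand; in other assays of this panel Not Active means under 50% inhibition at 10 µM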
# T1 sequence (P0DMS8 whole entry): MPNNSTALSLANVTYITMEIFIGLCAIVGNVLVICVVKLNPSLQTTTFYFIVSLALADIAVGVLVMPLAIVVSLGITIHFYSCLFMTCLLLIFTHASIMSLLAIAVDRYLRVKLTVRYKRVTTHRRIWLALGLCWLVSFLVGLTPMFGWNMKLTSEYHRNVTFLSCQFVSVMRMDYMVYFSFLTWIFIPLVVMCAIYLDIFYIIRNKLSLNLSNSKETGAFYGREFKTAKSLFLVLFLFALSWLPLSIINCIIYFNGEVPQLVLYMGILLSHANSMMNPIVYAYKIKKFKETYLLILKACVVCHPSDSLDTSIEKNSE
# [5] = target: Tyrosine-protein kinase Fyn (Homo sapiens, UniProt P06241); assay: biochemical; assay type: cell-based, Insect cells
# [6] = DRUGMATRIX: Serotonin (5-Hydroxytryptamine) 5-HT3 radioligand binding (ligand: [3H] GR-65630); assay type: cell membranes, Membrane; conditions: hek293; Not Active = under 50% inhibition at 10 µM
# Interstitial collagenase = target: T2, Interstitial collagenase (Homo sapiens, UniProt P03956); assay type: tissue-based, Rheumatoid synovial fibroblasts
# T2 sequence (P03956 whole entry): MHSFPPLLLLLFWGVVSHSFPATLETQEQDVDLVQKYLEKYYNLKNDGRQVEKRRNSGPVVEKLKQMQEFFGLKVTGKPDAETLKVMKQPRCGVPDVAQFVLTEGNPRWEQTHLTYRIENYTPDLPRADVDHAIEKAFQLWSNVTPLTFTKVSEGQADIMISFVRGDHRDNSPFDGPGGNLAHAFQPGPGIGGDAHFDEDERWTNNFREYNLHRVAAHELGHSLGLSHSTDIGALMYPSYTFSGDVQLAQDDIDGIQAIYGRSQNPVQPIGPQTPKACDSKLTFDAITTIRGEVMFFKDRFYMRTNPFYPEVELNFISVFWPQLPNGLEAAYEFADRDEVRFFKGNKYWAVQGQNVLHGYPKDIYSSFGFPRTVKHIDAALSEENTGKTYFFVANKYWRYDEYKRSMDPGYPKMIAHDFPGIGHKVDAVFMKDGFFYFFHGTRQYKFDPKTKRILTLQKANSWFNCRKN
# [7] = DRUGMATRIX: GABAA, Flunitrazepam, Central radioligand binding (ligand: [3H] Flunitrazepam); assay type: cell membranes, Rattus norvegicus, Wistar, Brain, Membrane; conditions: Not Active = under 50% inhibition at 10 µM
# [8] = target: Mitogen-activated protein kinase 14 (Homo sapiens, UniProt Q16539); set-up: species or system Escherichia coli
# [9] = DRUGMATRIX: Calcium Channel Type L, Dihydropyridine radioligand binding (ligand: [3H] Nitrendipine); assay type: cell membranes, Rattus norvegicus, Wistar, Cerebral cortex, Membrane; conditions: Not Active = under 50% inhibition at 10 µM
# Progesterone receptor = target: T3, Progesterone receptor (Bos taurus, UniProt Q690N0); assay: DRUGMATRIX: Progesterone radioligand binding (ligand: [3H] R-5020); assay type: tissue-based, Uterus; conditions: Not Active = under 50% inhibition at 10 µM
# T3 sequence (Q690N0 whole entry): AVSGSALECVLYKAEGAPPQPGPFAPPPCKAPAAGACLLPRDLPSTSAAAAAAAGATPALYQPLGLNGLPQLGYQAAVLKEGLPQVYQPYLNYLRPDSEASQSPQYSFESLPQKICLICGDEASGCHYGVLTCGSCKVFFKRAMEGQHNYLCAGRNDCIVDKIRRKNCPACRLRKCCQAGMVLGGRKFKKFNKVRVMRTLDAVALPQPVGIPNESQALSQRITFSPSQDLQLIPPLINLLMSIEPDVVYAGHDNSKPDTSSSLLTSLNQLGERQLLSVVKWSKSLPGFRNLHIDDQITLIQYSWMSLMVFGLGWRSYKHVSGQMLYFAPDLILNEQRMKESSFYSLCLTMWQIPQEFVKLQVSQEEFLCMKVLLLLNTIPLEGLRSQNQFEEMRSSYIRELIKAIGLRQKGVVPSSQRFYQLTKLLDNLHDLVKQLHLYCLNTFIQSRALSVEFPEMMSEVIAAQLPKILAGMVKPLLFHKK
# [10] = DRUGMATRIX: GABAA, Muscimol, Central radioligand binding (ligand: [3H] Muscimol); assay type: cell membranes, Rattus norvegicus, Wistar, Brain, Membrane; conditions: Not Active = under 50% inhibition at 10 µM
# [11] = target: T4, C-X-C chemokine receptor type 1 (Homo sapiens, UniProt P25024); note: in other assays of this panel Not Active means under 50% inhibition at 10 µM
# T4 sequence (P25024 whole entry): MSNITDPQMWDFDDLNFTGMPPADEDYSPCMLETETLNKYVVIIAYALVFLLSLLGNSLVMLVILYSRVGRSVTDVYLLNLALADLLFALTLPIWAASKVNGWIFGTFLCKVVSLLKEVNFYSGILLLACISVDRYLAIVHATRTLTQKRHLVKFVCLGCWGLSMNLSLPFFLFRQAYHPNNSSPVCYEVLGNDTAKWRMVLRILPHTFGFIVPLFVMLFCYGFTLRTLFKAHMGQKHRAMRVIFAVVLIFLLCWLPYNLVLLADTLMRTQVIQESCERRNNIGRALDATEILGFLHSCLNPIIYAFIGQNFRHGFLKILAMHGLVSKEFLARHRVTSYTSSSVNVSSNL
# D(1A) dopamine receptor = D(1A) dopamine receptor (Homo sapiens, UniProt P21728); assay: DRUGMATRIX: Dopamine D1 radioligand binding (ligand: [3H] SCH-23390); assay type: cell membranes, CHO, Membrane; conditions: cho; Not Active = under 50% inhibition at 10 µM
# D(3) dopamine receptor = D(3) dopamine receptor (Homo sapiens, UniProt P35462); assay: DRUGMATRIX: Dopamine D3 radioligand binding (ligand: [3H] Spiperone); assay type: cell membranes, CHO, Membrane; conditions: cho
# Melanocortin receptor 3 = Melanocortin receptor 3 (Homo sapiens, UniProt P41968); assay type: cell membranes, Membrane; conditions: hek293; note: in other assays of this panel Not Active means under 50% inhibition at 10 µM
# [12] = DRUGMATRIX: Phorbol Ester radioligand binding (ligand: [3H] PDBu); assay type: cell membranes, Mus musculus, ICR, Brain, Membrane; conditions: Not Active = under 50% inhibition at 10 µM
# Substance-P receptor, sequence (P25103 whole entry): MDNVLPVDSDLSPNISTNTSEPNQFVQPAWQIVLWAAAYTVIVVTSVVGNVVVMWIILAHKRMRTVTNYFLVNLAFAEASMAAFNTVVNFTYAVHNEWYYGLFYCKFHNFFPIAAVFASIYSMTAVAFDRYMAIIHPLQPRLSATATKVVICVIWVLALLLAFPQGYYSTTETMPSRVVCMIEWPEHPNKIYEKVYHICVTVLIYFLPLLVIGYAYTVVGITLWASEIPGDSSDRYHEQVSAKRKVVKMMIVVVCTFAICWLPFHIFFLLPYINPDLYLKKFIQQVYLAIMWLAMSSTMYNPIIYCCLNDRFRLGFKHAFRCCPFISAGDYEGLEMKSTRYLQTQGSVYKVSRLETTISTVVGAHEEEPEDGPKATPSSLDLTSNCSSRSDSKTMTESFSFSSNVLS
# D(3) dopamine receptor, sequence (P35462 whole entry): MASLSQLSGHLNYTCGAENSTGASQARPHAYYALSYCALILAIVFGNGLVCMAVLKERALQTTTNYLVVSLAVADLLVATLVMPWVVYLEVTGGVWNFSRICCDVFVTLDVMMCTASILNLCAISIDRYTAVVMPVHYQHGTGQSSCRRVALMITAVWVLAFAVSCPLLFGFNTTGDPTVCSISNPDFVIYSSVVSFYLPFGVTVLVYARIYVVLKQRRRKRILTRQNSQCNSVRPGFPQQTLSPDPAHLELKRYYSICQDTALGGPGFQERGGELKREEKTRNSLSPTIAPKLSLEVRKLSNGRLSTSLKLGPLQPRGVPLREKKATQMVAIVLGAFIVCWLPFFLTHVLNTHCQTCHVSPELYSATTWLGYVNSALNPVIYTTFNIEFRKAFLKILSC
# Tyrosine-protein kinase Fyn, sequence (P06241 whole entry): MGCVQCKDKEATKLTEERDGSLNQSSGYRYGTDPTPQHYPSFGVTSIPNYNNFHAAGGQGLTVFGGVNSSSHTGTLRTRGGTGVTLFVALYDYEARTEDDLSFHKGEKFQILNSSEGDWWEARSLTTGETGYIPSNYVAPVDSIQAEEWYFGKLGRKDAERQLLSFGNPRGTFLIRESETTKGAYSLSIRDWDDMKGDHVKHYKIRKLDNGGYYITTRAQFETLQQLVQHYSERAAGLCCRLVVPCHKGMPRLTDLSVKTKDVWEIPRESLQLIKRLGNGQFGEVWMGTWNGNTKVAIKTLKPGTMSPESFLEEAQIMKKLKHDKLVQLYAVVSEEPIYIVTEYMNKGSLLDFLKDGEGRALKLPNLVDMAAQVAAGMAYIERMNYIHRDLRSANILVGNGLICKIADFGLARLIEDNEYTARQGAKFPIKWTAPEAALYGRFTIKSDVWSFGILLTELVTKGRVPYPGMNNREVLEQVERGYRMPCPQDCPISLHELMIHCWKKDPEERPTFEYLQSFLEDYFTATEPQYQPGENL
# Delta-type opioid receptor, sequence (P41143 whole entry): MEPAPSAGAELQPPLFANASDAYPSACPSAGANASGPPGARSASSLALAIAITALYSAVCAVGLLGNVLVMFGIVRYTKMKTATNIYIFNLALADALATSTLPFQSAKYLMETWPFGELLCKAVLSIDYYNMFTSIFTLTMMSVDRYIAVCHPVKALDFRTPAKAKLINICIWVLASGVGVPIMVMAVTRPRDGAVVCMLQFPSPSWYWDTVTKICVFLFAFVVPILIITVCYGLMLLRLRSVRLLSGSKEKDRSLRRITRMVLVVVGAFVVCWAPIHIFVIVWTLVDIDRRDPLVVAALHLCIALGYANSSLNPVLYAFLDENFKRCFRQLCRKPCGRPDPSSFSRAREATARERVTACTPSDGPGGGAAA
# D(1A) dopamine receptor, sequence (P21728 whole entry): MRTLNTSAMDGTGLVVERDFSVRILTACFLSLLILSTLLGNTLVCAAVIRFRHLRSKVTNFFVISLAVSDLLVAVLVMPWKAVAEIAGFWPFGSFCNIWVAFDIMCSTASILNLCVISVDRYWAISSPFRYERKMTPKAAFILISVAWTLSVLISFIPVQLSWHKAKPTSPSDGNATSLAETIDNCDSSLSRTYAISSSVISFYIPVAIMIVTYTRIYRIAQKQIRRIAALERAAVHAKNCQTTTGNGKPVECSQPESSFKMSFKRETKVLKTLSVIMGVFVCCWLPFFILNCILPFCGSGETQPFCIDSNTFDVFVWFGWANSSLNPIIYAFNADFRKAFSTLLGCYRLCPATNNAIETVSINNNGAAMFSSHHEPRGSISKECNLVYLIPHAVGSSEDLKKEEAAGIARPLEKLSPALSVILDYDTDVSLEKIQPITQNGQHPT
# Melanocortin receptor 3, sequence (P41968 whole entry): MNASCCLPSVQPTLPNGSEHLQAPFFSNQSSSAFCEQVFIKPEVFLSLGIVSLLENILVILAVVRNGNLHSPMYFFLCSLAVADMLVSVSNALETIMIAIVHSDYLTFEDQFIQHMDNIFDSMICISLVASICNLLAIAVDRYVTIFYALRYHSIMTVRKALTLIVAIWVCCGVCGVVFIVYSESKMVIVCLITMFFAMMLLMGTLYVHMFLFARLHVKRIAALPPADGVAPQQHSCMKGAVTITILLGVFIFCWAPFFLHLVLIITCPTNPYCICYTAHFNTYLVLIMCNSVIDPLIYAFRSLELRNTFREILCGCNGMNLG
# Mitogen-activated protein kinase 14, sequence (Q16539 whole entry): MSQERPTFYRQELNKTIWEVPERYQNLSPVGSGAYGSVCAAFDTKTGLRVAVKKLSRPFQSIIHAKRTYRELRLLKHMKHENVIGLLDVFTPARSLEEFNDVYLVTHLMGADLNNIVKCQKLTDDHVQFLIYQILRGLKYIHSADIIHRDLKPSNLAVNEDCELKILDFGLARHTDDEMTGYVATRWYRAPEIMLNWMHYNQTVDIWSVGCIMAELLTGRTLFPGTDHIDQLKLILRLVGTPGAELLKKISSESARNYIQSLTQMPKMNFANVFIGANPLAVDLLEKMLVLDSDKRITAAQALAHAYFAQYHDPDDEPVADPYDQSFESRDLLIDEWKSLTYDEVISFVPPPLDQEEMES
SMILES,IC50 [1],IC50 [2],Ki [2],IC50 [3],Ki [3],IC50 (Carbonic anhydrase 2),IC50 [4],IC50 (Substance-P receptor),IC50 [6],Ki [6],IC50 (Interstitial collagenase),IC50 [7],Ki [7],IC50 [9],Ki [9],IC50 (Progesterone receptor),IC50 [10],Ki [10],IC50 [11],IC50 (D(1A) dopamine receptor),other results
Cc1ccc(C(=O)C(C)CN2CCCCC2)cc1 (stereo unspecified) [TOLPERISONE],Not Active,Not Active,Not Active,Not Active,Not Active,Not Active,Not Active,Not Active,Not Active,Not Active,Not Active,Not Active,Not Active,Not Active,Not Active,Not Active,Not Active,Not Active,Not Active,Not Active,IC50 (Adenosine receptor A3; cho-k1): Not Active; IC50 ([5]; insect cells): Not Active; IC50 [8]: Not Active; IC50 (D(3) dopamine receptor): Not Active; IC50 (Melanocortin receptor 3): Not Active; IC50 [12]: Not Active; Ki [12]: Not Active
CN(N=O)C(=O)N[C@@H](C=O)[C@@H](O)[C@H](O)[C@H](O)CO [STREPTOZOCIN],Not Active,Not Active,Not Active,Not Active,Not Active,Not Active,Not Active,Not Active,Not Active,Not Active,Not Active,Not Active,Not Active,Not Active,Not Active,Not Active,Not Active,Not Active,Not Active,Not Active,IC50 (Adenosine receptor A3; cho-k1): Not Active; IC50 ([5]; insect cells): Not Active; IC50 [8]: Not Active; IC50 (D(3) dopamine receptor): Not Active; IC50 (Melanocortin receptor 3): Not Active; IC50 [12]: Not Active; Ki [12]: Not Active
NC(=O)c1ncn([C@@H]2O[C@H](CO)[C@@H](O)[C@H]2O)n1 [RIBAVIRIN],Not Active,Not Active,Not Active,Not Active,Not Active,Not Active,Not Active,Not Active,Not Active,Not Active,Not Active,Not Active,Not Active,Not Active,Not Active,Not Active,Not Active,Not Active,Not Active,Not Active,IC50 (Adenosine receptor A3; cho-k1): Not Active; IC50 ([5]; insect cells): Not Active; IC50 [8]: Not Active; IC50 (D(3) dopamine receptor): Not Active; IC50 (Melanocortin receptor 3): Not Active; IC50 [12]: Not Active; Ki [12]: Not Active
Oc1c(I)cc(I)c2cccnc12 [IODOQUINOL],Not Active,Not Active,Not Active,Not Active,Not Active,Not Active,Not Active,Not Active,Not Active,Not Active,Not Active,Not Active,Not Active,Not Active,Not Active,Not Active,Not Active,Not Active,Not Active,Not Active,IC50 (Adenosine receptor A3; read-out: IC50): 933 nM; Ki (Adenosine receptor A3; read-out: Ki): 527 nM; IC50 ([5]; read-out: IC50): 1570 nM; IC50 ([8]; read-out: IC50): 364 nM; IC50 (D(3) dopamine receptor): Not Active; IC50 (Melanocortin receptor 3): Not Active; IC50 [12]: Not Active; Ki [12]: Not Active
NC(=O)c1ccccc1O [SALICYLAMIDE],Not Active,Not Active,Not Active,Not Active,Not Active,Not Active,Not Active,Not Active,Not Active,Not Active,Not Active,Not Active,Not Active,Not Active,Not Active,Not Active,Not Active,Not Active,Not Active,Not Active,IC50 (Adenosine receptor A3; cho-k1): Not Active; IC50 ([5]; insect cells): Not Active; IC50 [8]: Not Active; IC50 (D(3) dopamine receptor): Not Active; IC50 (Melanocortin receptor 3): Not Active; IC50 [12]: Not Active; Ki [12]: Not Active
